≈ marks a conversion by molar mass, not a printed value.
Experiments:
human isoQC = biological target: T1, human isoQC (Homo sapiens, UniProt Q9NXS2); experiment: Assay 1 - isoQC potency, fluorescent enzymatic assay (H-Gln-AMC, coupled pGAPase detection); assay type: biochemical; settings: recombinant isoQC, 1 hour at 37°C
T1 construct: The Golgi luminal, enzymatically active region of human isoQC (S53-L382; see, e.g., Huang et al., 2011); GST (with enterokinase site) (N, cleaved yes); made in house; host or cells: E. coli
T1 sequence (Q9NXS2 53-382): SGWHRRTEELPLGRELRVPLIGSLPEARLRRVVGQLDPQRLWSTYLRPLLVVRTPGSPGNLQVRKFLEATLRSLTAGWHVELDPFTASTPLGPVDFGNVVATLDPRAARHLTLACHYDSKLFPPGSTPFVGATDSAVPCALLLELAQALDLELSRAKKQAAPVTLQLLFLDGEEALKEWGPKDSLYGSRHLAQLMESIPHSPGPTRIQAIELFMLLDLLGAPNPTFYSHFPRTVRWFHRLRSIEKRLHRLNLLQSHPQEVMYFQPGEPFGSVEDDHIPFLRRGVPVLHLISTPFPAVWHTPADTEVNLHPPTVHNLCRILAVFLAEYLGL
Excerpt: The Golgi luminal, enzymatically active region of human isoQC (S53-L382; see, e.g., Huang et al., 2011) was obtained by expression in E. coli of an N-terminally GST Enterokinase and C-terminally 6xHis tagged construct in the pET41(+) vector and subsequent purification using Ni-NTA IMAC. Enterokinase digestion ensued, followed by another Ni-NTA IMAC purification, Superdex75 based size exclusion and finally a spin concentration using a 10 kDa molecular weight cutoff. The final protein is formulated in 50 mM Tris-HCl, 150 mM NaCl, 50% Glycerol, pH 7.8.
(§1) Pyroglutamylation was measured by conversion of glutamine-4-amino-7-methylcoumarine (H-Gln-AMC, Bachem) to pyroglutamyl-AMC, which is subsequently a specific substrate for pyroglutamylaminopeptidase (pGAPase, Qiagen), releasing free AMC which can be fluorescently detected. For a typical inhibition assay, 7.5 µL aliquots of threefold dilutions of test compound in 50mM Tris pH8 buffer were plated in 384-well plates. 15 µL 20 µM hGln-AMC (diluted from a 40 mM stock dissolved in 25 mM HEPES using 50 mM Tris-HCl 25 pH 8.0) was added to each well. Finally, 7.5 µL, 3 ng/µL recombinant isoQC enzyme was added and the reaction mixture was incubated for 1 hour at 37°C. A 5 minute incubation at 98°C was then performed to denature the isoQC enzyme and stop the reaction.
To detect the amount of pyroglutamyl-AMC formed, a 0.125 U/mL pGAPase enzyme diluted in 50 mM Tris-HCl pH 8.0 containing 10 mM dithiothreitol (DTT) solution was prepared. 25 µL of the pyroglutamylation reaction mixture was transferred into an empty plate and to that, 25 µL of the pGAPase enzyme solution was added. Plates were then incubated for 25 minutes at room temperature before fluorescence readings were taken on an Envision2 plate reader with excitation set at 380 nm and emission at 450 nm. DMSO concentrations during the assay never exceeded 1% and activities were compared to controls containing only the same amount of DMSO and no test compound. Controls were taken along containing pyroglutamylated-AMC (Bachem, dissolved at 10 mM in DMSO) instead of H-Gln-AMC to control for pGAPase inhibition.
(§2) IC50 values are calculated using non-linear regression analysis with GraphPad Prism software.

recombinant QC enzyme = biological target: T2, recombinant QC enzyme (Homo sapiens, UniProt Q16769); experiment: Assay 2 - QC potency, fluorescent enzymatic assay (H-Gln-AMC, coupled pGAPase detection); assay type: biochemical; settings: 1 hour at 37°C
T2 construct: bacterial expression of residues 33-361 of uniprot ID Q16769, fused to a His tag; His tag (cleaved yes); made in house
T2 sequence (Q16769 33-361): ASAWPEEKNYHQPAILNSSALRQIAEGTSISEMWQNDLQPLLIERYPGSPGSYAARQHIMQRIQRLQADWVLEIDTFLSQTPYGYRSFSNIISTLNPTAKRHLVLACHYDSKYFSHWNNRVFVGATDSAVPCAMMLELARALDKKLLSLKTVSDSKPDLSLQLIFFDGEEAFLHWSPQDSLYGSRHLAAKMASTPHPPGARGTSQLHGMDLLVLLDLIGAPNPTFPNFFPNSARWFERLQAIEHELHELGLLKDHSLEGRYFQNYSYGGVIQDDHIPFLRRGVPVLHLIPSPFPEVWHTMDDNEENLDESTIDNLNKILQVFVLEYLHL
Procedure: After scale-up, expression and lysis, protein was purified by Ni-NTA IMAC, dialysed in the presence of Factor Xa, further purified by Ni-NTA reverse IMAC and finally filtrated for size on a Superdex 200 16/60 column. Final protein was concentrated using a spin concentrator at 10 kDa molecular weight cut-off and formulated in 150 mM NaCl, 50 mM Tris-HCl, 50% Glycerol, pH 8.0.
as §1, with “50 mM” for “50mM”, “h-Gln-AMC” for “hGln-AMC”, “Tris-HCl” for “Tris-HCl 25”, “QC” for “isoQC”
25 µL of the pyroglutamylation reaction mixture was transferred into an empty plate and to that, 25 µL of the pGAPase enzyme solution was added. Plates were then incubated for 25 minutes at room temperature before fluorescence readings were taken on an Envision2 plate reader with excitation set at 380 nm and emission at 450 nm.
Controls were taken along containing pyroglutamylated-AMC (Bachem, dissolved at 10 mM in DMSO) instead of H-Gln-AMC to control for pGAPase inhibition.
as §2

[1] = CACO-2-based cell-permeation and efflux; assay type: in vitro ADME; settings: human, 2 µM compound, pH 7.40
Procedure: CACO-2 (ATCC, Manassas, VA, USA) monolayers on polyethylene membranes in 96-well insert plates were incubated for 2 hours in 5% C02, 37°C with 2 µM compound tested bidirectionally in duplicate using HBSS with 10 mM HEPES at pH 7.40 ±0.05 as transport buffer. Final DMSO Concentrations were adjusted to less than 1%. All samples were mixed with acetonitrile containing internal standard and centrifuged at 3220 x g for 10 minutes. Subsequently, 100 µL supernatant solution was diluted with 100 µL distilled water for LC/MS/MS analysis. Lucifer yellow rejection assays were applied after the transport assay to ensure CACO-2 cell monolayer integrity.
The apparent permeability coefficient Papp (cm/s) was calculated using the equation: Papp = (dCr/dt) × Vr/(A×CO) [formula] where dCr/dt is the cumulative concentration of compound in the receiver chamber as a function of time (µM/s); Vr is the solution volume in the receiver chamber (0.075 mL on the apical side, 0.25 mL on the basolateral side); A is the surface area for the transport, i.e., 0.0804 cm^2 or the area of the monolayer; CO is the initial concentration in the donor chamber (µM).

[2] = Microsomal stability, mouse (MLM); assay type: in vitro ADME, CD-1 mouse; settings: mouse liver microsomes, 0.5 mg protein/mL, 1 µM test compound
Procedure: (§3) In order to assess metabolic stability of test compounds, commercially acquired CD-1 mouse liver microsome preparations were incubated in 100 µL at a final concentration of 0.5 mg protein/mL, 1 µM test compound, 0.99% methanol and 0.01% DMSO, after a 10 minute pre-incubation at 37°C and addition of 0.1 volumes 10 U/mL NADPH in 10 mM MgCl2. Reactions were stopped by addition of 300 µL cold acetonitrile containing internal standards at t = 0, 5, 10, 20, 30, and 60 minutes. Samples were submitted to LC-MS/MS analysis subsequently and the slope of linear regression of time versus In(% Remaining concentration) was derived to calculate t½ as t½= In(2) /(-Slope). Then Clint(mic) and Clint(liver) were calculated as follows: CLint(mk) = (0.693)/(In vitro T1/2) · (1)/(mg/mL microsomal protein in reaction system) [formula] CLint(liver) = CLint(mic) · (mg microsomes)/(g liver) · (g liver)/(kg body weight) [formula]
Where 45 mg microsomal protein/g liver and 88 g liver/kg mouse bodyweight were used as standardized parameters for mouse microsomes.

[3] = Microsomal stability, human (HLM); assay type: in vitro ADME; settings: liver microsomes, 0.5 mg protein/mL, 1 µM test compound
Procedure: as §3
(§4) The same procedure was performed for human microsomes, SD rat microsomes and (beagle) dog microsomes.
Where 45 mg microsomal protein/g liver and 20 g liver/kg human bodyweight were used as standardized parameters for human microsomes.

[4] = Microsomal stability, rat (RLM); assay type: in vitro ADME; settings: liver microsomes; SD rat microsomes, 0.5 mg protein/mL, 1 µM test compound
Procedure: as §3, §4
Where 45 mg microsomal protein/g liver and 40 g liver/kg rat bodyweight were used as standardized parameters for rat microsomes.

[5] = Microsomal stability, dog (DLM); assay type: in vitro ADME; settings: liver microsomes; (beagle) dog microsomes, 0.5 mg protein/mL, 1 µM test compound
Procedure: as §3, §4
Where 45 mg microsomal protein/g liver and 32 g liver/kg dog bodyweight were used as standardized parameters for […].

Kinetic solubility = assay type: physicochemical; settings: aqueous buffer; 50 mM phosphate buffer (pH 7.4), 24 hours at room temperature
Procedure: To assess the solubility of test compounds 10 µL of a 10 mM solution in DMSO was added to the lower chamber of a whatman miniuniprep (PTFE Filter Media with Polypropylene Housing) vial. 490 µL of 50 mM phosphate buffer (pH 7.4) was added to the lower chamber, the samples were vortexed for at least two minutes and then shaken on a shaker for 24 hours at room temperature at the speed of 880 rpm. The samples were then centrifuged for 20 minutes at 4000 rpm, compressed and the filtrates were injected into a HPLC-UV and LC-MS/MS system to calculate the concentration compared to the standard curve using a ACQUITY UPLC BEH C18 1.7 µm 2.1 * 50 mm column.

## O=C1OCC(c2cc(F)cc(C(F)(F)F)c2)N1c1ccc2[nH]cnc2c1 (single isomer, unassigned) [(17)-ent2]
Human isoQC
  IC50: 632 nM
Recombinant QC enzyme
  IC50: 1080 nM
[1]; Caco-2, pH 7.4, A2B
  Papp A→B at 2 h, 2 µM: 1.5 ×10⁻⁶ cm/s
[1]; Caco-2, pH 7.4, B2A
  Papp B→A at 2 h, 2 µM: 36.8 ×10⁻⁶ cm/s
[2]
  CLint scaled at 1 µM: 182 mL/min/kg
[3]
  CLint scaled at 1 µM: < 8.6 mL/min/kg
[4]
  CLint scaled at 1 µM: 49 mL/min/kg
[5]
  CLint scaled at 1 µM: < 13.8 mL/min/kg
Kinetic solubility
  solubility at 24 h: 39 µM (≈ 14.2 µg/mL)

— EP4455142A1, “NOVEL INHIBITOR OF QPCTL AND/OR QC” (Scenic Immunology B.V., priority 2023, dated 2024)
